Peptide text beside a SMILES is read from it.
Biological target: T1, WT ASIC1a (Homo sapiens, UniProt P78348)
T1 construct: expressed in transfected cells; host or cells: Xenopus laevis oocytes injected with cRNA
T1 sequence (P78348 1-528 G212D): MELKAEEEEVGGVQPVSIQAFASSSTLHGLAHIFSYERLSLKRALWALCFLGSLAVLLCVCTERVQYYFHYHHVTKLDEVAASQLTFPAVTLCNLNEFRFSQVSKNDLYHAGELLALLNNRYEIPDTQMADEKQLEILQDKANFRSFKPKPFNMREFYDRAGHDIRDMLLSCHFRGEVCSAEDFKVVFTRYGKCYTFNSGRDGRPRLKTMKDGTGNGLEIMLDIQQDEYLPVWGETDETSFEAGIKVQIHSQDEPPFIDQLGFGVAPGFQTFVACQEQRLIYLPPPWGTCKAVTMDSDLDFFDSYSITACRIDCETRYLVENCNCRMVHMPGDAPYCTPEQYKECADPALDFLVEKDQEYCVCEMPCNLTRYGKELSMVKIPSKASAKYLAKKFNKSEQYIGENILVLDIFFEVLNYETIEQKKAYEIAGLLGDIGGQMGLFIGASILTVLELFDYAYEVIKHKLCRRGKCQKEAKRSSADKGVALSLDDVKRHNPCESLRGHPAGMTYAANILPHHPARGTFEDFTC
Test: Disappearance of FRRFa-induced Isust on washout, WT
Type: cell-based
Conditions: WT in direct comparison with N416C; washout after 50 μM FRRFa 45 s; n = 4
Method: ASIC1a function was measured by two-electrode voltage-clamp after recombinant expression in Xenopus oocytes. The channels were activated by a pH5 stimulation solution from a conditioning solution of pH7.4. […] We measured the rate of FRRFa unbinding, as the disappearance of the sustained current after a 50-s incubation with 50 μM FRRFa, as 0.025 ± 0.005 s^−1 (n = 8, Fig. 2b). […] To determine the kinetics of FRRFa association on ASIC1a, we pre-applied the peptide at a concentration of 50 μM for different time periods in the conditioning solution and measured the sustained current fraction.
Figure 2 FRRFa modulation of ASIC1a currents is only partially affected by acidic pocket mutations. (a) FRRFa concentration-response curve. Top, representative current traces. Bottom, Isust/Ipeak ratio induced by pH5 as a function of the FRRFa concentration (pre-applied during 45–50 s and present in pH5 solution), n = 7–11. (b) Time course of disappearance of the FRRFa-induced Isust. FRRFa at 50 μM was applied for 45 s, and current was measured once every minute during washout with FRRFa-free solution. Exponential fit shown as solid line (n = 4, error bars are smaller than the symbols). (c) Time course of appearance of Isust. Oocytes were exposed for various durations to 50 μM FRRFa in the pH7.4 conditioning solution, before activation of ASIC currents with pH5, including 50 μM FRRFa. […]

**Q.** With `N=C(N)NCCC[C@H](NC(=O)[C@H](CCCNC(=N)N)NC(=O)[C@@H](N)Cc1ccccc1)C(=O)N[C@@H](Cc1ccccc1)C(N)=O` [FRRFa, Phe-Arg-Arg-Phe-amide] (H-FRRF-NH2) as the compound, how does the koff read?
**A.** The koff was 0.029 ± 0.011 s⁻¹.

Reference: paper PMC6385203, “Mutations in the palm domain disrupt modulation of acid-sensing ion channel 1a currents by neuropeptides” (Scientific Reports, 2019)
